Measured values: patent publication US12692232B2, “Indole carboxamide compound, preparation therefor and use thereof” (NANJING RUISHUNING MEDICAL TECHNOLOGY CO., LTD., priority 2021, dated 2026)

Biological target: T1, TRPC4 protein (Homo sapiens, UniProt Q9UBN4)
T1 sequence (Q9UBN4 1-977): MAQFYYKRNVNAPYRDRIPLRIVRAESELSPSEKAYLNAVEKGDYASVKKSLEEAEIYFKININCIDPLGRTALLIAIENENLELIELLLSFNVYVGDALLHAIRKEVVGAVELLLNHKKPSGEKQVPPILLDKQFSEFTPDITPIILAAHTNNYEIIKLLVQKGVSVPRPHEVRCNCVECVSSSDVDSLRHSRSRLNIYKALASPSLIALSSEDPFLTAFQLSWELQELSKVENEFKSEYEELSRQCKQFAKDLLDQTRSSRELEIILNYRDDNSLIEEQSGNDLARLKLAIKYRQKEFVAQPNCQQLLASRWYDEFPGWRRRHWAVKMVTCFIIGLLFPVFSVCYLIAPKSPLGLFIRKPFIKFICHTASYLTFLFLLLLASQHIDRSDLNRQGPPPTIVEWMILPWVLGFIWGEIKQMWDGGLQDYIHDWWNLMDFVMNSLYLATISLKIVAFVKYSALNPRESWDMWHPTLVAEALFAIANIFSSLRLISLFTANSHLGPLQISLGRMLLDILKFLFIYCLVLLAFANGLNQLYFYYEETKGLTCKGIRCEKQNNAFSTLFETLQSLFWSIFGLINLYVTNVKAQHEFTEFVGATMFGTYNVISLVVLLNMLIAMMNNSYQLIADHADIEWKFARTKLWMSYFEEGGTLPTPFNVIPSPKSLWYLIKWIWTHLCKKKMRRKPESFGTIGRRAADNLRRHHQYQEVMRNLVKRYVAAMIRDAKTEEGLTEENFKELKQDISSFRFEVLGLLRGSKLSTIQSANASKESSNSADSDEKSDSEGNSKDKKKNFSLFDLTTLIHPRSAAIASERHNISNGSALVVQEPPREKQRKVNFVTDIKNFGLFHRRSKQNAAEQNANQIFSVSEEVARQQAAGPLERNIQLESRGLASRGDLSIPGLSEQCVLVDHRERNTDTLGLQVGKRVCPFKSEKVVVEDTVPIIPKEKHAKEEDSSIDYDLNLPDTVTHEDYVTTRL
Test: MST binding to TRPC4 protein
Experimental: Preparation and labelling of protein solution: TRPC6 protein dry powder (Alomone Labs, Israel) was prepared into a protein mother solution at a concentration of 10 μM using PBS-Buffer, and 35 μL of the protein stock solution was taken to the Buffer exchange A column, and centrifuged to obtain the Tris-removed protein. 34 μL Labelling Buffer was added to the Tris-removed protein according to the instructions of the Protein Fluorescent Labelling Kit (model L001). After mixing well, 3 μL of NT-647-NHS fluorescent dye was added and thus obtained mixture was incubated for 20 minutes. The protein-dye mixture was transferred to the purification B column, 300 μL of PBS-Buffer was added, and the target protein, i.e. fluorescent labelled protein TRPC6, was collected by centrifugation (with a final concentration of about 2 μM). 180 μL of target protein was mixed with 1620 μL of PBS-Buffer, and then 9 μl of Tween-20 were added thereto. […]
The binding ability of the compounds of the present invention (as exemplified by the compounds 1-1 and 2-1 obtained in Examples 1 and 3) for other TRPC proteins (e.g., TRPC1, TRPC3, TRPC4, TRPC5, and TRPC7) was determined using the microscale thermophoresis (MST) method. […]
The affinity of the compounds of the present invention with TRPC1, TRPC3, TRPC4, TRPC5 and TRPC7 proteins, respectively, was determined by the same method as in Example 5.

Row | Structure (SMILES) | Kd for binding to TRPC4 protein
1 | CC(=O)OCCCNC(=O)c1c(C=O)c2ccccc2n1C [compound 1-1, propyl 3-[(3-formyl-1-methyl-1H-indole-2-carbonyl)amino]acetate] | cannot be measured
2 | Cn1c(C(=O)NCCCOC(=O)c2ccccc2)c(C=O)c2ccccc21 [compound 2-1] | cannot be measured
